The test system of one series is HBV. Briefly: Anti-HBV activity in vitro, HepG2.2.15 cells, extracellular HBV DNA by qPCR. Format: cell-based. The following applies: Hepatitis B virus, HepG2.2.15, 120 h, HepG2.2.15 cells; HBV replication inhibited by 50%, extracellular HBV DNA by qPCR; five days after compound treatment; read-out: EC50. In outline: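 Extracellular HBV DNA in culture supernatant was measured by qPCR after nucleic acid extraction. The supernatant came from constitutively replicating HepG2.2.15 cells exposed for five days to half-log-diluted compounds, with DMSO at 0.5% final. Cells had been plated overnight at 37 °C beforehand.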

The nature of series [1]: Cytotoxicity in HepDE19 cells (CCK-8) and selectivity index. The settings on record: human, HepDE19 cells; CCK-8 cell viability; five days after treatment. The series is classed as cell-based. An excerpt: (§1) HepG2.2.15 and HepDE19 are stably-transfected cell lines containing the HBV genome. Both cell lines are derived from the hepatoblastoma cell line Hep G2 (American Type Culture Collection, ATCC® HB-8065™) by the published procedures described in references: MA Selles et al. Proc. Natl. Acad. Sci. USA 1987, 84, 1005-1009 and H Guo et al. Journal of Virology 2007, 81, 12472-12484, respectively. Both cell lines were maintained in Dulbecco's modified Eagle's medium (DMEM)-F12 medium supplemented with 10% fetal bovine serum, 100 U/mL penicillin, 100 μg/mL streptomycin, and 0.5 mg/mL of G418.
(§2) HepDE19 cells were seeded into 96-well plates (5×10^3 cells per well) and treated with compounds for EC50 determination. Five days after treatment, cell viability was measured by addition of 20 μL of CCK-8 reagent. Two hours after incubation at 37° C., the absorbance at wavelengths of 450 nm and 630 nm (OD450 and OD630) was recorded by a plate reader. The concentration results in the death of 50% of the host cells (CC50) of each compound were determined.
(§3) The relative effectiveness of the compound in inhibiting viral replication compared to inducing cell death was defined as the selectivity index (CC50 value/EC50 value). Based on CC50 and EC50 data, selectivity indexes were determined.

The next series has as its system HepDE19 cells. The description is as above. The series is classed as cell-based. The settings on record: CC50 (HepDE19) value / EC50 (HepG2.2.15) value.
Source text: as §1, §2, §3

Series [2] is described as follows: Human microsomal metabolic stability. Format: in vitro ADME. The following applies: human microsomes 0.5 mg/mL, 1 μM test compound, NADPH, 37° C., pH 7.4, 0-30 minutes. In outline:
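1 μM compound with 0.5 mg/mL human liver microsomal protein in 100 mM phosphate pH 7.4 at 37° C, started with 1 mM NADPH or a NADPH-regenerating system. Sampled at 0–30 min, quenched in cold methanol with tolbutamide internal standard; remaining parent quantified by LC-MS/MS.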

A further series is described as follows: Lysa solubility. The series is classed as physicochemical. The following applies: 0.05 M phosphate buffer (pH 6.5); for solubility thermodynamic: phosphate buffer, pH 6.5, aqueous buffer, thermodynamic from solid. In outline: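 Duplicate samples dried from 10 mM DMSO stocks, taken up in 0.05 M phosphate buffer pH 6.5, stirred 1 h, shaken 2 h and left overnight. Filtrate and 1/10 dilution quantified by direct UV or HPLC-UV, in μg/mL; above 80% of the calculated maximum, reported as greater than that value.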

The values below come from patent US9233978B2, “6-fused heteroaryldihydropyrimidines for the treatment and prophylaxis of hepatitis B virus infection” (Hoffmann-La Roche Inc., priority 2014, dated 2016).

Converted amounts (≈) assume the structure as drawn.

Usually EC50 stands for the midpoint of the concentration-response curve. What is called CC50 is the concentration that lowers cell viability or growth by half. A higher CC50 goes with lower toxicity to the cells. The solubility (thermodynamic) is solubility found after equilibrating the solid with the medium.

Turning to `COC(=O)C1=C(CN2CCN3C(=O)N(C4CCC(C(=O)O)C4)C[C@@H]3C2)NC(c2nccs2)=N[C@H]1c1ccc(F)cc1Cl` (mixture of isomers) [Example 61, (R)-6-[(S)-2-((1R,3S)-3-Carboxy-cyclopentyl)-3-oxo-hexahydro-imidazo[1,5-a]pyrazin-7-ylmethyl]-4-(2-chloro-4-fluoro-phenyl)-2-thiazol-2-yl-1,4-dihydro-pyrimidine-5-carboxylic acid methyl ester and (R)-6-[(S)-2-((1S,3R)-3-Carboxy-cyclopentyl)-3-oxo-hexahydro-imidazo[1,5-a]pyrazin-7-ylmethyl]-4-(2-chloro-4-fluoro-phenyl)-2-thiazol-2-yl-1,4-dihydro-pyrimidine-5-carboxylic acid methyl ester], the EC50 with HBV stood at 12 nM. In series [1], this molecule registered a CC50 at 5 days of more than 100000 nM. Besides, the “Selectivity index (CC50/EC50)” value in the series with HepDE19 cells was more than 8333. For the same molecule, the “Human Microsomal Clearance” value in series [2] came to 0.4 mL/min/kg. The molecule further returned a solubility (thermodynamic) in the series “Lysa solubility” of more than 742 µg/mL.

`CCOC(=O)C1=C(CN2CCN3C(=O)CC[C@@H]3[C@H]2C(=O)O)NC(c2nccs2)=N[C@H]1c1cccc(F)c1Cl` (racemic) [Example 99, 2-[[(4R)-4-(2-chloro-3-fluoro-phenyl)-5-ethoxycarbonyl-2-thiazol-2-yl-1,4-dihydropyrimidin-6-yl]methyl]-6-oxo-1,3,4,7,8,8a-hexahydropyrrolo[1,2-a]pyrazine-1-carboxylic acid]: the concentration for a half-maximal effect (EC50) in the series with HBV worked out at 14 nM. For the same molecule, in series [1], the CC50 at 5 days is more than 100000 nM. Also, the “Selectivity index (CC50/EC50)” value with HepDE19 cells was more than 7142. The “Human Microsomal Clearance” value in series [2] worked out at 6.1 mL/min/kg. In the series “Lysa solubility”, this molecule registered a thermodynamic solubility of more than 710 µg/mL.

Consider `COC(=O)C1=C(CN2CCN3C(=O)N(C4CC4)C[C@@H]3[C@H]2C(=O)O)NC(c2nccs2)=N[C@H]1c1ccc(F)c(F)c1C` (single isomer, unassigned) [Example 83B], for which the EC50 in the series on HBV came out at 9 nM. In series [1], this molecule yielded a CC50 at 5 days of more than 100000 nM. The “Selectivity index (CC50/EC50)” value with HepDE19 cells was more than 11111. In addition, the “Human Microsomal Clearance” value in series [2] came out at 2.9 mL/min/kg. Also, the “Lysa” value in “Lysa solubility” came to 780 µg/mL.

Turning to `CCOC(=O)C1=C(CN2CCN3C(=O)N(C(C)C)C[C@@H]3[C@H]2C(=O)O)NC(c2nccs2)=N[C@H]1c1cccc(F)c1Cl` (single isomer, unassigned) [Example 84B], the EC50 with HBV was found to be 1 nM. In addition, in series [1], the cytotoxic concentration (CC50) at 5 days was more than 100000 nM. Besides, in the series on HepDE19 cells, the “Selectivity index (CC50/EC50)” value was more than 100000. Moreover, the “Human Microsomal Clearance” value in series [2] amounted to 3.6 mL/min/kg. In addition, the “Lysa” value in “Lysa solubility” was 770 µg/mL.

With `CCOC(=O)C1=C(CN2CCN3C(=O)OC[C@@H]3[C@H]2C(=O)O)NC(c2nccs2)=N[C@H]1c1cccc(F)c1Cl` (single isomer, unassigned) [Example 102B], the EC50 with HBV stood at 14 nM. Also, in series [1], the CC50 at 5 days is more than 100000 nM. The “Selectivity index (CC50/EC50)” value with HepDE19 cells is on record as more than 7142. Further, the “Human Microsomal Clearance” value in series [2] amounted to 6.2 mL/min/kg. In addition, in the series “Lysa solubility”, the thermodynamic solubility was more than 665 µg/mL.

With `COC(=O)C1=C(CN2CCN3C(=O)N(CC4(C(=O)O)CC4)C[C@@H]3C2)NC(c2nccs2)=N[C@H]1c1ccc(F)cc1Cl` [Example 35, 1-[[(8aS)-7-[[(4R)-4-(2-chloro-4-fluoro-phenyl)-5-methoxycarbonyl-2-thiazol-2-yl-1,4-dihydropyrimidin-6-yl]methyl]-3-oxo-5,6,8,8a-tetrahydro-1H-imidazo[1,5-a]pyrazin-2-yl]methyl]cyclopropanecarboxylic acid], the EC50 in the series on HBV worked out at 11 nM. Also, the CC50 at 5 days in series [1] was more than 100000 nM. For the same molecule, the “Selectivity index (CC50/EC50)” value with HepDE19 cells is more than 9259. Also, the “Human Microsomal Clearance” value in series [2] is on record as 0.3 mL/min/kg. In “Lysa solubility”, this molecule showed a thermodynamic solubility of more than 754 µg/mL.

Consider `COC(=O)C1=C(CN2CCN3C(=O)N(CC(C)(C)C(=O)O)C[C@@H]3C2)NC(c2nccs2)=N[C@H]1c1cccc(F)c1Cl` [Example 41, 3-[(8aS)-7-[[(4R)-4-(2-chloro-3-fluoro-phenyl)-5-methoxycarbonyl-2-thiazol-2-yl-1,4-dihydropyrimidin-6-yl]methyl]-3-oxo-5,6,8,8a-tetrahydro-1H-imidazo[1,5-a]pyrazin-2-yl]-2,2-dimethyl-propanoic acid], for which, in the series with HBV, the EC50 worked out at 14 nM. In addition, the CC50 at 5 days in series [1] was more than 100000 nM. Moreover, in the series on HepDE19 cells, the “Selectivity index (CC50/EC50)” value is more than 7194. Further, the “Human Microsomal Clearance” value in series [2] stood at 2.0 mL/min/kg. The thermodynamic solubility in the series “Lysa solubility” is more than 804 µg/mL.

As to `COC(=O)C1=C(CN2CCN3C(=O)N(CC(C)(C)C(=O)O)C[C@@H]3C2)NC(c2nccs2)=N[C@H]1c1cccc(F)c1C` [Example 44, 3-[(8aS)-7-[[(4S)-4-(3-fluoro-2-methyl-phenyl)-5-methoxycarbonyl-2-thiazol-2-yl-1,4-dihydropyrimidin-6-yl]methyl]-3-oxo-5,6,8,8a-tetrahydro-1H-imidazo[1,5-a]pyrazin-2-yl]-2,2-dimethyl-propanoic acid], in the series with HBV, the EC50 amounted to 16 nM. The same molecule registered a CC50 at 5 days in series [1] of more than 100000 nM. The “Selectivity index (CC50/EC50)” value in the series with HepDE19 cells is given as more than 6369. In addition, in series [2], the “Human Microsomal Clearance” value amounted to 1.7 mL/min/kg. Also, in the series “Lysa solubility”, the solubility (thermodynamic) came to 207 µg/mL (≈ 354 µM).

As for `COC(=O)C1=C(CN2CCN3C(=O)N(Cc4ccc(C(=O)O)cc4)CC3C2)NC(c2nccs2)=N[C@H]1c1ccc(F)cc1Cl` (stereo partly drawn) [Example 65, (R)-6-[2-(4-Carboxy-benzyl)-3-oxo-hexahydro-imidazo[1,5-a]pyrazin-7-ylmethyl]-4-(2-chloro-4-fluoro-phenyl)-2-thiazol-2-yl-1,4-dihydro-pyrimidine-5-carboxylic acid methyl ester], the EC50 in the series with HBV stood at 9 nM. Moreover, in series [1], the CC50 at 5 days is more than 100000 nM. Further, the “Selectivity index (CC50/EC50)” value in the series with HepDE19 cells is reported as more than 11111. Further, the “Human Microsomal Clearance” value in series [2] is given as 6.2 mL/min/kg. For the same molecule, the thermodynamic solubility in “Lysa solubility” is 194 µg/mL (≈ 304 µM).

With `COC(=O)C1=C(CN2CCN3C(=O)N(C4CC5(CC(C(=O)O)C5)C4)C[C@@H]3C2)NC(c2nccs2)=N[C@H]1c1ccc(F)cc1Cl` (stereo partly drawn) [Example 79, 2-[(8aS)-7-[[(4R)-4-(2-chloro-4-fluoro-phenyl)-5-methoxycarbonyl-2-thiazol-2-yl-1,4-dihydropyrimidin-6-yl]methyl]-3-oxo-5,6,8,8a-tetrahydro-1H-imidazo[1,5-a]pyrazin-2-yl]spiro[3.3]heptane-6-carboxylic acid], the EC50 with HBV worked out at 8 nM. In series [1], this molecule had a 50% cytotoxic concentration (CC50) at 5 days of 52000 nM. For the same molecule, the “Selectivity index (CC50/EC50)” value in the series with HepDE19 cells came to 6500. Moreover, in series [2], the “Human Microsomal Clearance” value stood at 3.6 mL/min/kg. Also, the thermodynamic solubility in “Lysa solubility” is 180 µg/mL (≈ 280 µM).

`CCOC(=O)C1=C(CN2CCN3C(=O)N(CC4CC(C(=O)O)C4)C[C@@H]3C2)NC(c2nccs2)=N[C@H]1c1cccc(F)c1Cl` (stereo partly drawn) [Example 81, 3-[[(8aS)-7-[[(4R)-4-(2-chloro-3-fluoro-phenyl)-5-ethoxycarbonyl-2-thiazol-2-yl-1,4-dihydropyrimidin-6-yl]methyl]-3-oxo-5,6,8,8a-tetrahydro-1H-imidazo[1,5-a]pyrazin-2-yl]methyl]cyclobutanecarboxylic acid]: the EC50 in the series on HBV stood at 10 nM. This molecule also registered a CC50 at 5 days in series [1] of 85000 nM. In the series on HepDE19 cells, the “Selectivity index (CC50/EC50)” value amounted to 8500. The “Human Microsomal Clearance” value in series [2] amounted to 0.1 mL/min/kg. The same molecule yielded a thermodynamic solubility in “Lysa solubility” of 279 µg/mL (≈ 442 µM).
